# Measured values: paper PMC5218480 (PLoS ONE, 2017)
# Tested on: MV-4-11 cells
# Assay: Gene expression microarray analysis (Affymetrix PrimeView) and GSEA
# Format: cell-based, human
# Set-up: RFU PODN (11730768_x_at) / Fold change /veh PODN (11730768_x_at) / RFU LINC00158 (11744669_a_at) / Fold change /veh LINC00158 (11744669_a_at) / RFU DUSP10 (11751237_a_at) / Fold change /veh DUSP10 (11751237_a_at) / RFU ID3 (11757404_x_at) / Fold change /veh ID3 (11757404_x_at) / RFU PLEKHG5 (11737974_s_at) / Fold change /veh PLEKHG5 (11737974_s_at) / RFU LRRC4B (11730491_at) / Fold change /veh LRRC4B (11730491_at) / RFU GIMAP4 (11747438_a_at) / Fold change /veh GIMAP4 (11747438_a_at) / RFU KRT8 (11758183_x_at) / Fold change /veh KRT8 (11758183_x_at) / RFU CNN1 (11734310_a_at) / Fold change /veh CNN1 (11734310_a_at) / RFU VPS37D (11726825_at) / Fold change /veh VPS37D (11726825_at) / RFU C10orf10 (11716522_x_at) / Fold change /veh C10orf10 (11716522_x_at) / RFU KIR2DL2 /// KIR2DL4 /// KIR2DL5A /// KIR2DL5B /// KIR2DS1 /// KIR2DS2 /// KIR2DS3 /// KIR2DS4 /// KIR3DL3 /// KIR3DL3 /// KIR3DS1 (11738374_at) / Fold change /veh KIR2DL2 /// KIR2DL4 /// KIR2DL5A /// KIR2DL5B /// KIR2DS1 /// KIR2DS2 /// KIR2DS3 /// KIR2DS4 /// KIR3DL3 /// KIR3DL3 /// KIR3DS1 (11738374_at) / RFU C1QL1 (11718748_at) / Fold change /veh C1QL1 (11718748_at) / RFU TMPRSS4 (11747572_a_at) / Fold change /veh TMPRSS4 (11747572_a_at) / RFU HAMP (11756126_x_at) / Fold change /veh HAMP (11756126_x_at) / RFU RNFT2 (11725882_a_at) / Fold change /veh RNFT2 (11725882_a_at) / RFU NR4A2 (11747474_a_at) / Fold change /veh NR4A2 (11747474_a_at) / RFU ABCC12 (11746883_a_at) / Fold change /veh ABCC12 (11746883_a_at) / RFU TMEM136 (11760407_x_at) / Fold change /veh TMEM136 (11760407_x_at) / RFU CLDN22 /// WWC2 (11732394_at) / Fold change /veh CLDN22 /// WWC2 (11732394_at) / RFU HLA-DPB1 (11760878_x_at) / Fold change /veh HLA-DPB1 (11760878_x_at) / RFU SPINT1 (11716480_a_at) / Fold change /veh SPINT1 (11716480_a_at) / RFU GAP43 (11754022_s_at) / Fold change /veh GAP43 (11754022_s_at) / RFU A4GNT (11735810_at) / Fold change /veh A4GNT (11735810_at) / RFU PRB3 (11715151_x_at) / Fold change /veh PRB3 (11715151_x_at) / RFU TUBB4B (11761932_at) / Fold change /veh TUBB4B (11761932_at) / RFU CAPN14 (11732068_a_at) / Fold change /veh CAPN14 (11732068_a_at) / RFU TMCC2 (11721928_a_at) / Fold change /veh TMCC2 (11721928_a_at) / RFU IRGQ (11745062_a_at) / Fold change /veh IRGQ (11745062_a_at) / RFU FAM174B (11720279_a_at) / Fold change /veh FAM174B (11720279_a_at) / RFU TMPRSS4 (11748680_a_at) / Fold change /veh TMPRSS4 (11748680_a_at) / RFU FAM212B (11763350_a_at) / Fold change /veh FAM212B (11763350_a_at) / RFU PLEKHG5 (11743358_a_at) / Fold change /veh PLEKHG5 (11743358_a_at) / RFU ZSCAN30 (11745921_a_at) / Fold change /veh ZSCAN30 (11745921_a_at) / RFU CMKLR1 (11741424_a_at) / Fold change /veh CMKLR1 (11741424_a_at) / RFU LOC101060620 /// MAPK8IP1 (11723275_at) / Fold change /veh LOC101060620 /// MAPK8IP1 (11723275_at) / RFU SPTSSB (11747773_x_at) / Fold change /veh SPTSSB (11747773_x_at) / RFU PRSS12 (11739890_at) / Fold change /veh PRSS12 (11739890_at) / RFU BIN1 (11741810_x_at) / Fold change /veh BIN1 (11741810_x_at) / RFU WNT11 (11732464_a_at) / Fold change /veh WNT11 (11732464_a_at) / RFU C10orf10 (11716521_a_at) / Fold change /veh C10orf10 (11716521_a_at) / RFU C5orf56 (11738089_at) / Fold change /veh C5orf56 (11738089_at) / RFU CYB561 (11721691_x_at) / Fold change /veh CYB561 (11721691_x_at) / RFU ANKRD19P (11752326_a_at) / Fold change /veh ANKRD19P (11752326_a_at) / RFU OR2T12 /// OR2T33 /// OR2T8 (11738714_s_at) / Fold change /veh OR2T12 /// OR2T33 /// OR2T8 (11738714_s_at) / RFU VCAN (11748164_a_at) / Fold change /veh VCAN (11748164_a_at) / RFU JSRP1 (11732532_at) / Fold change /veh JSRP1 (11732532_at) / RFU KRTAP10-11 (11738290_x_at) / Fold change /veh KRTAP10-11 (11738290_x_at) / RFU MYO3A (11730013_a_at) / Fold change /veh MYO3A (11730013_a_at) / RFU EBF3 (11725865_a_at) / Fold change /veh EBF3 (11725865_a_at) / RFU CAMK2N1 (11719241_x_at) / Fold change /veh CAMK2N1 (11719241_x_at) / RFU C5orf56 (11738088_a_at) / Fold change /veh C5orf56 (11738088_a_at) / RFU OLFML3 (11715873_a_at) / Fold change /veh OLFML3 (11715873_a_at) / RFU LOC100653217 /// NTM (11731650_a_at) / Fold change /veh LOC100653217 /// NTM (11731650_a_at) / RFU MAPK11 (11762145_a_at) / Fold change /veh MAPK11 (11762145_a_at) / RFU FIZ1 (11724087_x_at) / Fold change /veh FIZ1 (11724087_x_at) / RFU OASL (11726364_x_at) / Fold change /veh OASL (11726364_x_at) / RFU SOX15 (11748057_x_at) / Fold change /veh SOX15 (11748057_x_at) / RFU CD79A (11719716_a_at) / Fold change /veh CD79A (11719716_a_at) / RFU HIST1H1D (11736915_at) / Fold change /veh HIST1H1D (11736915_at) / RFU CASKIN2 (11723855_a_at) / Fold change /veh CASKIN2 (11723855_a_at) / RFU LOC730098 (11760151_x_at) / Fold change /veh LOC730098 (11760151_x_at) / RFU OR4N2 (11742367_at) / Fold change /veh OR4N2 (11742367_at) / RFU PRRT2 (11749266_a_at) / Fold change /veh PRRT2 (11749266_a_at) / RFU SNX32 (11753110_a_at) / Fold change /veh SNX32 (11753110_a_at) / RFU CDHR5 (11726645_a_at) / Fold change /veh CDHR5 (11726645_a_at) / RFU RCAN1 (11760418_a_at) / Fold change /veh RCAN1 (11760418_a_at) / RFU FAM167A (11723789_a_at) / Fold change /veh FAM167A (11723789_a_at) / RFU FAM26E (11764081_at) / Fold change /veh FAM26E (11764081_at) / RFU ISYNA1 (11749810_s_at) / Fold change /veh ISYNA1 (11749810_s_at) / RFU ACY1 (11761880_at) / Fold change /veh ACY1 (11761880_at) / RFU 11764098_at / Fold change /veh 11764098_at / RFU SAMD14 (11745864_x_at) / Fold change /veh SAMD14 (11745864_x_at) / RFU NPB (11741838_a_at) / Fold change /veh NPB (11741838_a_at) / RFU TMPRSS6 (11731388_a_at) / Fold change /veh TMPRSS6 (11731388_a_at) / RFU KRTAP10-2 (11738614_at) / Fold change /veh KRTAP10-2 (11738614_at) / RFU ARHGAP8 /// PRR5-ARHGAP8 (11727945_x_at) / Fold change /veh ARHGAP8 /// PRR5-ARHGAP8 (11727945_x_at) / RFU KRTAP5-7 /// NADSYN1 (11734609_at) / Fold change /veh KRTAP5-7 /// NADSYN1 (11734609_at) / RFU RASL12 (11751679_a_at) / Fold change /veh RASL12 (11751679_a_at) / RFU CDKN2B (11736163_a_at) / Fold change /veh CDKN2B (11736163_a_at) / RFU PRF1 (11729649_at) / Fold change /veh PRF1 (11729649_at) / RFU, ZNF638 /// ZNF638-IT1 / Fold change vs veh, ZNF638 /// ZNF638-IT1 / RFU, PANK3 / Fold change vs veh, PANK3 / RFU, SH3YL1 / Fold change vs veh, SH3YL1 / RFU, ZEB2 / Fold change vs veh, ZEB2 / RFU, NRIP1 / Fold change vs veh, NRIP1 / RFU, PTTG1IP / Fold change vs veh, PTTG1IP / RFU, CAPN2 / Fold change vs veh, CAPN2 / RFU, MED14 / Fold change vs veh, MED14 / RFU, SNORA58 / Fold change vs veh, SNORA58 / RFU, C1orf63 / Fold change vs veh, C1orf63 / RFU, LRRFIP1 / Fold change vs veh, LRRFIP1 / RFU, NDUFAF7 / Fold change vs veh, NDUFAF7 / RFU, SLC12A2 / Fold change vs veh, SLC12A2 / RFU, IBTK / Fold change vs veh, IBTK / RFU, ESF1 / Fold change vs veh, ESF1 / Fold change vs veh, TMEM50B / RFU, TAOK1 / Fold change vs veh, TAOK1 / RFU, ACBD3 / Fold change vs veh, ACBD3 / RFU, TMA16 / Fold change vs veh, TMA16 / RFU, RWDD3 / Fold change vs veh, RWDD3 / RFU, BCAT1 / Fold change vs veh, BCAT1 / RFU, EDEM3 / Fold change vs veh, EDEM3 / RFU, TMEM33 / Fold change vs veh, TMEM33 / RFU, WDR75 / Fold change vs veh, WDR75 / RFU, AHCTF1 / Fold change vs veh, AHCTF1 / RFU, TFRC / Fold change vs veh, TFRC / RFU, ZDHHC17 / Fold change vs veh, ZDHHC17 / RFU, NOM1 / Fold change vs veh, NOM1 / RFU, ARL8B / Fold change vs veh, ARL8B / RFU, ZBTB11 / Fold change vs veh, ZBTB11 / RFU, TAMM41 / Fold change vs veh, TAMM41 / RFU, KIAA1704 /// LOC100996395 / Fold change vs veh, KIAA1704 /// LOC100996395 / RFU, ING1 / Fold change vs veh, ING1 / RFU, TRMT61B / Fold change vs veh, TRMT61B / RFU, FUBP3 / Fold change vs veh, FUBP3 / RFU, TP53 / Fold change vs veh, TP53 / RFU, TNKS2 / Fold change vs veh, TNKS2 / RFU, ZFP14 / Fold change vs veh, ZFP14 / RFU, ACTR2 / Fold change vs veh, ACTR2 / RFU, PPP3R1 / Fold change vs veh, PPP3R1 / RFU, PIK3R1 / Fold change vs veh, PIK3R1 / RFU, HNRNPA1 / Fold change vs veh, HNRNPA1 / RFU, RNF170 / Fold change vs veh, RNF170 / RFU, ZNF28 / Fold change vs veh, ZNF28 / RFU, RNGTT / Fold change vs veh, RNGTT / RFU, OGT / Fold change vs veh, OGT / RFU, BRD1 / Fold change vs veh, BRD1 / RFU, MARS / Fold change vs veh, MARS / RFU, ZNF655 / Fold change vs veh, ZNF655 / RFU, FAHD1 / Fold change vs veh, FAHD1 / RFU, BDP1 / Fold change vs veh, BDP1 / RFU, LRRCC1 / Fold change vs veh, LRRCC1 / RFU, ARID1A / Fold change vs veh, ARID1A / RFU, ZNF146 / Fold change vs veh, ZNF146 / RFU, ZNF330 / Fold change vs veh, ZNF330 / RFU, GPN3 / Fold change vs veh, GPN3 / RFU, C9orf123 / Fold change vs veh, C9orf123 / RFU, N4BP2L2 / Fold change vs veh, N4BP2L2 / RFU, ARFIP1 / Fold change vs veh, ARFIP1 / RFU, FAM179B / Fold change vs veh, FAM179B / RFU, BCL10 / Fold change vs veh, BCL10 / RFU, UHRF1BP1L / Fold change vs veh, UHRF1BP1L / RFU, BET1 / Fold change vs veh, BET1 / RFU, CNOT2 / Fold change vs veh, CNOT2 / RFU, ZNF268 / Fold change vs veh, ZNF268 / Fold change vs veh, ZNF507 / RFU, DGCR2 / Fold change vs veh, DGCR2 / RFU, WDSUB1 / Fold change vs veh, WDSUB1 / Fold change vs veh, HSP90B1 /// MIR3652 / RFU, ADSS / Fold change vs veh, ADSS / RFU, GK / Fold change vs veh, GK / RFU, ZNF148 / Fold change vs veh, ZNF148 / RFU, TAF9 / Fold change vs veh, TAF9 / RFU, SLC1A5 / Fold change vs veh, SLC1A5 / RFU, SLMO2 / Fold change vs veh, SLMO2 / RFU, ABCC4 / Fold change vs veh, ABCC4 / RFU, LOC101060439 /// RAP1B / Fold change vs veh, LOC101060439 /// RAP1B / RFU, RFX7 / Fold change vs veh, RFX7 / RFU, GTPBP10 / Fold change vs veh, GTPBP10 / RFU, CNEP1R1 / Fold change vs veh, CNEP1R1 / RFU, BIVM-ERCC5 /// ERCC5 / Fold change vs veh, BIVM-ERCC5 /// ERCC5 / RFU, ILF3 / Fold change vs veh, ILF3 / RFU 11762660_at / Fold change /veh 11762660_at / RFU VCAN (11757783_s_at) / Fold change /veh VCAN (11757783_s_at) / RFU DDX43 (11728927_at) / Fold change /veh DDX43 (11728927_at) / RFU KRT8 (11758188_x_at) / Fold change /veh KRT8 (11758188_x_at) / RFU NKD1 (11759106_at) / Fold change /veh NKD1 (11759106_at) / RFU SRD5A1 (11742802_a_at) / Fold change /veh SRD5A1 (11742802_a_at) / RFU TPSAB1 /// TPSB2 (11721975_s_at) / Fold change /veh TPSAB1 /// TPSB2 (11721975_s_at) / RFU GSTM3 (11746129_a_at) / Fold change /veh GSTM3 (11746129_a_at) / RFU IL23R (11737362_x_at) / Fold change /veh IL23R (11737362_x_at) / RFU TMEM51 (11727254_a_at) / Fold change /veh TMEM51 (11727254_a_at) / RFU PIWIL2 (11732686_x_at) / Fold change /veh PIWIL2 (11732686_x_at) / RFU ORM1 (11744905_x_at) / Fold change /veh ORM1 (11744905_x_at) / RFU CCDC152 (11743942_at) / Fold change /veh CCDC152 (11743942_at) / RFU ECM1 (11717891_a_at) / Fold change /veh ECM1 (11717891_a_at) / RFU IL23R (11748794_a_at) / Fold change /veh IL23R (11748794_a_at) / RFU TNFAIP8L3 (11732012_x_at) / Fold change /veh TNFAIP8L3 (11732012_x_at) / RFU MBOAT4 (11741988_at) / Fold change /veh MBOAT4 (11741988_at) / RFU 11764193_at / Fold change /veh 11764193_at / RFU TMEM53 (11763286_at) / Fold change /veh TMEM53 (11763286_at) / RFU MAGEB2 (11727129_at) / Fold change /veh MAGEB2 (11727129_at) / RFU TMEM200A (11744735_a_at) / Fold change /veh TMEM200A (11744735_a_at) / RFU CCDC152 (11751479_a_at) / Fold change /veh CCDC152 (11751479_a_at) / RFU FAM211A (11726209_a_at) / Fold change /veh FAM211A (11726209_a_at) / RFU RGS16 (11746705_a_at) / Fold change /veh RGS16 (11746705_a_at) / RFU VCAN (11755009_s_at) / Fold change /veh VCAN (11755009_s_at) / RFU RHOB (11743442_s_at) / Fold change /veh RHOB (11743442_s_at) / RFU RGS16 (11720943_a_at) / Fold change /veh RGS16 (11720943_a_at) / RFU RGS16 (11720944_at) / Fold change /veh RGS16 (11720944_at) / RFU, VPS4B / Fold change vs veh, VPS4B / RFU, CREB1 / Fold change vs veh, CREB1 / RFU, DNAJC13 / Fold change vs veh, DNAJC13 / RFU, GNAQ / Fold change vs veh, GNAQ / RFU, CDK5R1 / Fold change vs veh, CDK5R1 / RFU, ZRANB3 / Fold change vs veh, ZRANB3 / RFU, CUL4A / Fold change vs veh, CUL4A / RFU, CCNY / Fold change vs veh, CCNY / RFU, UFL1 / Fold change vs veh, UFL1 / RFU, COG3 / Fold change vs veh, COG3 / RFU, DIAPH2 / Fold change vs veh, DIAPH2 / RFU, SKA2 / Fold change vs veh, SKA2 / RFU, AFF3 / Fold change vs veh, AFF3 / RFU, LMF1 / Fold change vs veh, LMF1 / RFU, IPO11 / Fold change vs veh, IPO11 / RFU, DFFB / Fold change vs veh, DFFB / RFU, FOXP1 / Fold change vs veh, FOXP1 / RFU, CARD8 / Fold change vs veh, CARD8 / RFU, STRN3 / Fold change vs veh, STRN3 / RFU, ADK / Fold change vs veh, ADK / RFU, RASSF2 / Fold change vs veh, RASSF2 / RFU, WIPF1 / Fold change vs veh, WIPF1 / RFU, LARP1B / Fold change vs veh, LARP1B / RFU, RASA1 / Fold change vs veh, RASA1 / RFU, RB1 / Fold change vs veh, RB1 / RFU, PPFIA1 / Fold change vs veh, PPFIA1 / RFU, MAT2A / Fold change vs veh, MAT2A / RFU, CCT5 / Fold change vs veh, CCT5 / RFU, WDR92 / Fold change vs veh, WDR92 / RFU, CUX1 / Fold change vs veh, CUX1 / RFU, TTC7A / Fold change vs veh, TTC7A / RFU, TMEM135 / Fold change vs veh, TMEM135 / RFU, DEPTOR / Fold change vs veh, DEPTOR / RFU, CPM / Fold change vs veh, CPM / RFU, DNAJB6 / Fold change vs veh, DNAJB6 / RFU, CACNA2D3 / Fold change vs veh, CACNA2D3 / RFU, DTX4 / Fold change vs veh, DTX4 / RFU, TFCP2 / Fold change vs veh, TFCP2 / RFU, GMCL1 /// GMCL1P1 / Fold change vs veh, GMCL1 /// GMCL1P1 / RFU, AEBP2 / Fold change vs veh, AEBP2 / RFU, SNHG1 /// SNORD22 /// SNORD25 /// SNORD26 /// SNORD27 /// SNORD28 /// SNORD29 /// SNORD31 / Fold change vs veh, SNHG1 /// SNORD22 /// SNORD25 /// SNORD26 /// SNORD27 /// SNORD28 /// SNORD29 /// SNORD31 / Fold change (Aza/veh), C12orf56 (ProbeSet 11735607_a_at) / Fold change (ACY-1035/veh), C12orf56 (ProbeSet 11735607_a_at) / Fold change (Aza/veh), FGFR1OP (ProbeSet 11751329_s_at) / Fold change (ACY-1035/veh), FGFR1OP (ProbeSet 11751329_s_at) / Fold change (Aza/veh), VPS36 (ProbeSet 11739960_a_at) / Fold change (ACY-1035/veh), VPS36 (ProbeSet 11739960_a_at) / RFU SYPL1 (11715823_x_at) / Fold change /veh SYPL1 (11715823_x_at) / RFU IGFBP7 (11715501_s_at) / Fold change /veh IGFBP7 (11715501_s_at) / RFU REEP3 (11722064_at) / Fold change /veh REEP3 (11722064_at) / RFU IGLL1 (11728026_x_at) / Fold change /veh IGLL1 (11728026_x_at): dose or concentration left out as unconfirmed
# Conditions: ProbeSet 11755159_a_at; LIST D
smiles,measurement,value
Nc1ncn([C@@H]2O[C@H](CO)[C@@H](O)[C@H]2O)c(=O)n1 [azacitidine],"Fold change vs veh, COG3",0.82
